Experimental data: patent publication US4156777A, “Process for producing glucopyranose-nitrosourea compounds and novel compounds included therein” (Tokyo Tanabe Company, Limited, priority 1977, dated 1979)

Columns and labels:
[1] = system: various kinds of bacteria; assay: Antibacterial activity (overall statement); assay type: cell-based; settings: Table VI
Description: Using 6DCNU and 6MCαG, minimum inhibiting concentrations (referred to as "MIC") for various kinds of bacteria were estimated by means of the broth-dilution method.

[2] = Diabetogenic activity (blood glucose concentration after intravenous administration); assay type: in vivo, male Wister rats; settings: for blood glucose concentrations versus control, in words: i.v., rats
Description: 40-96 mg/kg of the test compounds were administered intravenously to starved male Wister rats weighing 240-260 g each, and the blood glucose concentrations of the test animals were estimated by the glucose exidase method [L. L. Saloman et al: Anal. Chem., 31 (1959), 453], in which test the compounds were dissolved in physiological saline solution just before administration. […]

[3] = known compounds, generally seen; cited from earlier work
[4] = 40 mg/kg i.v., 0 hr after treatment
[5] = 40 mg/kg i.v., 2 hr after treatment
[6] = 40 mg/kg i.v., 4 hr after treatment
[7] = 40 mg/kg i.v., 7 hr after treatment
[8] = 40 mg/kg i.v., 10 hr after treatment
[9] = 40 mg/kg i.v., 24 hr after treatment
[10] = 40 mg/kg i.v., 48 hr after treatment
[11] = 60 mg/kg i.v., 0 hr after treatment
[12] = 60 mg/kg i.v., 2 hr after treatment
[13] = 60 mg/kg i.v., 4 hr after treatment
[14] = 60 mg/kg i.v., 7 hr after treatment
[15] = 60 mg/kg i.v., 10 hr after treatment
[16] = 60 mg/kg i.v., 24 hr after treatment
[17] = 60 mg/kg i.v., 48 hr after treatment

SMILES	Blood Glucose Concentration [2, 4] [mg/dL]	Blood Glucose Concentration [2, 5] [mg/dL]	Blood Glucose Concentration [2, 6] [mg/dL]	Blood Glucose Concentration [2, 7] [mg/dL]	Blood Glucose Concentration [2, 8] [mg/dL]	Blood Glucose Concentration [2, 9] [mg/dL]	Blood Glucose Concentration [2, 10] [mg/dL]	Blood Glucose Concentration [2, 11] [mg/dL]	Blood Glucose Concentration [2, 12] [mg/dL]	Blood Glucose Concentration [2, 13] [mg/dL]	Blood Glucose Concentration [2, 14] [mg/dL]	Blood Glucose Concentration [2, 15] [mg/dL]	Blood Glucose Concentration [2, 16] [mg/dL]	Blood Glucose Concentration [2, 17] [mg/dL]	blood glucose concentrations versus control, in words [2]	other results
O=NN(CCCl)C(=O)NC[C@H]1OC(O)[C@H](O)[C@@H](O)[C@@H]1O (stereo partly drawn) [Example 6DCNU, 3-(D-glucopyranos-6-yl)-1-(2-chloroethyl)-1-nitrosourea]	70.4	73.3	67.7	68.2	68.3	69.9	73.8	72.0	74.2	78.3	76.8	79.2	78.7	79.4	substantially the same blood glucose concentrations as that in the control	antibacterial activity, in words [1]: no substantial antibacterial activity; Blood Glucose Concentration ([2]; 77 mg/kg i.v., 0 hr after treatment): 72.4 mg/dL; Blood Glucose Concentration ([2]; 77 mg/kg i.v., 2 hr after treatment): 75.3 mg/dL; Blood Glucose Concentration ([2]; 77 mg/kg i.v., 4 hr after treatment): 75.8 mg/dL; Blood Glucose Concentration ([2]; 77 mg/kg i.v., 7 hr after treatment): 79.8 mg/dL; Blood Glucose Concentration ([2]; 77 mg/kg i.v., 10 hr after treatment): 76.2 mg/dL; Blood Glucose Concentration ([2]; 77 mg/kg i.v., 24 hr after treatment): 78.2 mg/dL; Blood Glucose Concentration ([2]; 77 mg/kg i.v., 48 hr after treatment): 80.5 mg/dL; diabetogenic activity, in words ([2]; rat, in vivo): low diabetogenic activity
CO[C@H]1O[C@H](CNC(=O)N(CCCl)N=O)[C@@H](O)[C@H](O)[C@H]1O [Example 6MCαG, 1-(2-chloroethyl)-3-(methyl α-D-glucopyranos-6-yl)-1-nitrosourea]	72.0	75.9	79.3	71.7	79.4	73.1	75.3	71.8	72.5	69.8	68.7	67.7	68.4	70.8	substantially the same blood glucose concentrations as that in the control	Blood Glucose Concentration ([2]; 80 mg/kg i.v., 0 hr after treatment): 73.7 mg/dL; Blood Glucose Concentration ([2]; 80 mg/kg i.v., 2 hr after treatment): 82.0 mg/dL; Blood Glucose Concentration ([2]; 80 mg/kg i.v., 4 hr after treatment): 78.3 mg/dL; Blood Glucose Concentration ([2]; 80 mg/kg i.v., 7 hr after treatment): 77.8 mg/dL; Blood Glucose Concentration ([2]; 80 mg/kg i.v., 10 hr after treatment): 73.6 mg/dL; Blood Glucose Concentration ([2]; 80 mg/kg i.v., 24 hr after treatment): 76.3 mg/dL; Blood Glucose Concentration ([2]; 80 mg/kg i.v., 48 hr after treatment): 83.1 mg/dL; diabetogenic activity, decreasing order [3]: SZ>DCNU>GANU> 2MCαG≈6MCαG
